Test results as given in paper PMC6270837, “Preparation and Biological Properties of Ring-Substituted Naphthalene-1-Carboxanilides” (Molecules, 2014).
pIC50: −log10 of the molar value. Read-outs that look alike come from different tables or passages of the source.

Legend:
physchem = conditions: aqueous buffer, kinetic from dmso stock
[1] = system: Mycobacterium avium subsp. paratuberculosis CIT03; assay: In vitro antimycobacterial evaluation (MIC/IC90, alamarBlue); assay type: cell-based; conditions: for MIC: Mycobacterium avium
Protocol: The MIC/IC90 value is routinely and widely used in bacterial assays and is a standard detection limit according to the Clinical and Laboratory Standards Institute.
A well-characterized clinical isolate of Mycobacterium avium subsp. paratuberculosis (CIT03) was grown in Middlebrook broth (MB), supplemented with Oleic-Albumin-Dextrose-Catalase supplement (OADC, Becton, Dickinson and Comp., Franklin Lakes, NJ, USA) and mycobactin J (2 µg/mL). Identification of this isolate was performed using biochemical and molecular protocols. At log phase growth, a culture sample (10 mL) was centrifuged at 15,000 rpm/20 min using a bench top centrifuge (Model CR 4-12, Jouan Inc., Winchester, VA, USA). Following removal of the supernatant, the pellet was washed in fresh Middlebrook 7H9GC broth and re-suspended in fresh supplemented MB (10 mL). The turbidity was adjusted to match McFarland standard No. 1 (3 × 10^8 cfu) with MB broth. A further 1:20 dilution of the culture was then performed in MB broth. The antimicrobial susceptibility of the mycobacterial species was investigated in a 96-well plate format. In these experiments, sterile deionized water (300 µL) was added to all outer-perimeter wells of the plates to minimize evaporation of the medium in the test wells during incubation. Each evaluated compound (100 µL) was incubated with the mycobacterial species (100 µL). Dilutions of each compound were prepared in duplicate. For all synthesized compounds, final concentrations ranged from 1,000 µg/mL to 8 µg/mL. All compounds were prepared in DMSO and subsequent dilutions were made in supplemented MB. The plates were sealed with parafilm and incubated at 37 °C for 11 days.
Following incubation, a 10% addition of alamarBlue (AbD Serotec, Kidlington, UK) was mixed into each well and readings at 570 nm and 600 nm were taken, initially for background subtraction and subsequently after 24 h re-incubation. […] For non-interfering compounds, a blue colour in the well was interpreted as an absence of growth and a pink colour was scored as growth. Furthermore percent reduction of alamarBlue was calculated to generate quantitative data on cell viability during exposure to antimycobacterial compounds over a period of 5 days. The formula used to determine percent reduction of alamarBlue has been standardized for colorimetric analysis by Abd Serotec.
The MIC value is routinely and widely used in bacterial assays and is a standard detection limit according to the Clinical and Laboratory Standards Institute.

[2] = system: M. avium subsp. paratuberculosis; assay: MTT assay on mycobacteria; assay type: cell-based, Mycobacterium avium subsp. paratuberculosis; conditions: lowest tested concentration 8 µg/mL (ca. 30 µmol/L), four hours of incubation
Protocol: Additionally, a standard MTT assay was performed on these same compounds. The MTT assay is a well-characterized method of assessing cell growth through measurement of respiration.
For the MTT assay, the same 96-well plate set up and incubation conditions listed above were used. After the incubation period, a 10% addition of MTT reagent was mixed into each well and incubated at 37 °C for 4 h. The reagent and media were then aspirated from the wells to which 50 µL DMSO was then added and plates were read at 550 nm.

[3] = system: photosynthetic electron transport (PET) in isolated spinach chloroplasts; assay: Inhibition of photosynthetic electron transport (PET) in isolated spinach chloroplasts; assay type: biochemical, Spinacia oleracea L.; conditions: DCPIP photoreduction
Protocol: The PET-inhibiting activity was expressed by IC50 value, i.e., compound concentration in mol/L causing 50% inhibition of PET.
Chloroplasts were prepared from spinach (Spinacia oleracea L.) according to Masarovicova and Kralova. The inhibition of photosynthetic electron transport (PET) in isolated spinach chloroplasts was determined spectrophotometrically (Genesys 6, Thermo Scientific, USA), using an artificial electron acceptor 2,6-dichlorophenol-indophenol (DCIPP) according to Kralova et al., and the rate of photosynthetic electron transport was monitored as a photoreduction of DCPIP. The measurements were carried out in phosphate buffer (0.02 mol/L, pH 7.2) containing sucrose (0.4 mol/L), MgCl2 (0.005 mol/L) and NaCl (0.015 mol/L). The chlorophyll content was 30 mg/L in these experiments and the samples were irradiated (~100 W/m^2 with 10 cm distance) with a halogen lamp (250 W) using a 4 cm water filter to prevent warming of the samples (suspension temperature 22 °C). The studied compounds were dissolved in DMSO due to their limited water solubility. […] The inhibitory efficiency of the studied compounds was expressed by IC50 values, i.e., by molar concentration of the compounds causing 50% decrease in the oxygen evolution rate relative to the untreated control.

[4] = Lipophilicity determination by RP-HPLC (capacity factor, log k); assay type: physicochemical; conditions: end-capped C18, isocratic MeOH 60%/H2O 40%
Protocol: Lipophilicity is a property that has a major effect on bioavailability, biotransformation as well as pharmacological activity, because drugs cross biological membranes through passive transport, which strongly depends on their lipophilicity. Lipophilicity of the studied compounds was determined by RP‑HPLC as capacity factor logarithm (log k). The procedure was performed under isocratic conditions with methanol as an organic modifier in the mobile phase using an end-capped non-polar C18 stationary RP column. The results of ring-substituted naphthalene-1-carboxanilides 1–8c are shown in Table 1 and illustrated in Figure 1. […] Lipophilicity was also calculated as log P using ACD/Percepta ver. 2012 (Advanced Chemistry Development, Inc., Toronto, ON, Canada).
A HPLC system Agilent 1200 equipped with DAD detector (Agilent, USA) was used. A chromatographic column Symmetry® C18 5 μm, 4.6 × 250 mm, Part No. WAT054275 (Waters Corp., Milford, MA, USA) was used. The HPLC separation process was monitored and evaluated by EZChrom Elite software ver. 3.3.2 (Agilent, USA). Isocratic elution by a mixture of MeOH p.a. (60%) and H2O-HPLC Mili-Q grade (40%) as a mobile phase was used. The total flow of the column was 1.0 mL/min, injection 20 μL, column temperature 40 °C, and sample temperature 10 °C. The detection wavelength 210 nm was chosen. The KI methanolic solution was used for the dead time (tD) determination. Retention times (tR) were measured in minutes. The capacity factors k were calculated according to formula k = (tR − tD)/tD, where tR is the retention time of the solute, whereas tD denotes the dead time obtained using an unretained analyte. Log k, calculated from the capacity factor k, is used as the lipophilicity index converted to log P scale.

[5] = M. avium subsp. paratuberculosis, comparison of MICs

## Cc1ccc(NC(=O)c2cccc3ccccc23)cc1 [Compound 3c, N-(4-Methylphenyl)naphthalene-1-carboxamide]
physchem
  solubility: ≤ 30 µM
[1]; [5]
  antimycobacterial activity relative to ciprofloxacin: three-fold higher
  antimycobacterial activity relative to rifampicin: two-fold higher
[1]; 264 h, clinical isolate CIT03, 11 days at 37 °C, alamarBlue, MIC = 90% or greater reduction of growth, read-out: MAP MIC/IC90
  MIC: 57 µM
[1]; clinical isolate CIT03, read-out: MIC
  MIC: 15 µg/mL
[1]; clinical isolate CIT03, 11 days at 37 °C, alamarBlue, MIC = 90% or greater reduction of growth
  MAP MIC/IC90: 57 µM
[2]
  reduction in activity (MTT): more than 80%
[3]
  pIC50: 3.42
[4]
  log k: 0.7551
